Data on four molecules can be found in patent publication US6358961B1, “Farnesyltransferase inhibiting quinazolinones” (Jannsen-Cilag S.A., priority 1997, dated 2002).

Data set [1] has as its system NIH 3T3 cells transformed by the T24 activated human H-ras gene. In words: Ras-Transformed Cell Phenotype Reversion Assay. Format: cell-based, mouse. The settings on record: NIH3T3; cell counts after 72 hours proliferation; test concentrations 5, 10, 50, 100 and 500 nM. An excerpt: “Ras-Transformed Cell Phenotype Reversion Assay”
Insertion of activated oncogenes such as the mutant ras gene into mouse NIH 3T3 cells converts the cells to a transformed phenotype, The cells become tumorigenic, display anchorage independent growth in semi-solid medium and lose contact inhibition. Loss of contact inhibition produces cell cultures which no longer form uniform monolayers. Rather, the cells pile up into multicellular nodules and grow to very high saturation densities in plastic tissue culture dishes. Agents such as protein famesyl transferase inhibitors which revert the ras transformed phenotype restore the uniform monolayer growth pattern to cells in culture. This reversion is easily monitored by counting the number of cells in tissue culture plates. Transformed cells will achieve higher cell numbers than cells which have reverted to an untransformed phenotype. Compounds which revert the transformed phenotype should produce antitumor effects in tumors bearing ras gene mutations.
Compounds are screened in tissue culture in NIH 3T3 cells transformed by the T24 activated human H-ras gene. […] Then the cells are detached in 1.0 ml trypsin-EDTA cell dissociation medium and counted on a Coulter particle counter.
Cell numbers expressed as cells per well are measured using a Coulter Particle Counter. […]

SMILES strings stand for the structures.

By melting point is commonly meant the temperature, or range, at which the solid turns liquid. As to `O=c1nc(-c2cccc(Cl)c2)c2cc(C(c3ccc(Cl)cc3)n3ccnc3)ccc2[nH]1` (racemic) [Compound 1, (±)-4-(3-chlorophenyl)-6[(4-chlorophenyl)-1H-imidazol-1-ylmethyl]-2(1H)-quinazolinone], the melting point was determined as 255.1 °C. Molecule `O=c1nc(-c2cccc(Cl)c2)c2cc(C(c3ccc(Cl)cc3)n3ccnc3)ccc2n1Cc1ccncc1` (racemic) [Compound 3, (±)-4-(3-chlorophenyl)-6-[(4-chlorophenyl)-1H-imidazol-1-ylmethyl]-1-(4-pyridinylmethyl)-2(1H)-quinazolinone] had a melting point of 61.4 °C. For `O=C1Nc2ccc(C(c3ccc(Cl)cc3)n3ccnc3)cc2C(c2cccc(Cl)c2)N1` (racemic) [Compound 8, (±)-4-(3-chlorophenyl)-6-[(4-chlorophenyl)-1H-imidazol-1-ylmethyl]-3,4-dihydro-2(1H)-quinazolinone], the melting point came to 177.1 °C.

Broadly, the IC50 is the concentration at which inhibition is half-maximal. High values mean a need for much substance, low ones inhibition by little substance. `CN1C(=O)NC(c2cccc(Cl)c2)c2cc(C(c3ccc(Cl)cc3)c3cncn3C)ccc21` (racemic) [Compound 14, (±)-4-(3-chlorophenyl)-6-[(4-chlorophenyl)(1-methyl-1H-imidazol-5-yl)methyl]-3,4-dihydro-1-methyl-2(1H)-quinazolinone]: in data set [1], the IC50 is < 500 nM.
